Measured values published in patent US12116358B2, “Substituted indoles and methods of use thereof” (EPIZYME, INC., priority 2018, dated 2024).
Where two headings read alike, the source gives them in different places.

Key:
H3K36me3 in A549 cells = test: In-Cell Western (ICW) assay of SETD2 inhibitors (A549 assay); type: cell-based, human; details: A549 cells, read-out: SETD2 A549
Procedure, shortened: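 A549 cells seeded at 4,000/well onto compound and incubated 3 days at 37° C. Methanol-fixed cells stained overnight at 4° C with anti-H3K36me3 (1:1000), then IRDye 800CW secondary with DRAQ5 DNA counterstain. Plates read by Licor imaging at 700 and 800 channels.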

SETD2(1434-1711) = target: T1, SETD2(1434-1711) (Homo sapiens, UniProt Q9BYW2); test: SETD2 (1434-1711) assay; type: biochemical; details: read-out: SETD2 (1434-1711)
T1 construct: SETD2 (1434-1711) Assay; catalogue N/A
T1 sequence (Q9BYW2 1434-1711): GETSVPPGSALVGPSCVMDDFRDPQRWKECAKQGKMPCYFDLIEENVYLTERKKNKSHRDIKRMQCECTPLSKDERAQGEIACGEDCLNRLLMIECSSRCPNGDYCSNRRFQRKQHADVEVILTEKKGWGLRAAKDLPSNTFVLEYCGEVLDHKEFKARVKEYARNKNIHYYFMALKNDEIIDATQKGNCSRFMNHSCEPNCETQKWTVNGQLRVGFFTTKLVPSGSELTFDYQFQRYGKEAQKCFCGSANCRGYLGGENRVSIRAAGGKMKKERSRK

SMILES	IC50 (H3K36me3 in A549 cells)	IC50 (SETD2(1434-1711))	IC50 (H3K36me3 in A549 cells; Homo sapiens)
CC(=O)N1CC2(C1)CN([C@@H]1CCC[C@@H](NC(=O)c3cc4c(F)ccc(C)c4[nH]3)C1)C2 [compound 889]		2500 nM	> 2000 nM
CC(=O)N1CC2CN(C3CCCC(NC(=O)c4cc5c(F)ccc(C)c5[nH]4)C3)CC2C1 (stereo not shown) [compound 1178]	> 2000 nM	3900 nM	
CC(=O)N1CCN([C@@H]2C[C@H](NC(=O)c3cc4c(F)ccc(C)c4[nH]3)CN(C)C2)CC1 [compound 1006]		1000 nM	1800 nM
Cc1ccc(F)c2cc(C(=O)NC3CCCC(N4CCC(N(C)C(=O)C(C)C)C4)C3)[nH]c12 (stereo not shown) [compound 970]	> 2000 nM	5000 nM	
CC(=O)N1C2CCC1CN(C1CCCC(NC(=O)c3cc4c(F)ccc(C)c4[nH]3)C1)C2 (stereo not shown) [compound 927]	> 2000 nM	1700 nM	
CC(=O)N1C2CC1CN(c1cccc(NC(=O)c3cc4c(F)ccc(C)c4[nH]3)c1)C2 [compound 257]		200 nM	600 nM
CC(=O)NC1CCN([C@H]2CCC[C@@H](NC(=O)c3cc4c(F)ccc(C)c4[nH]3)C2)C1 (stereo partly shown) [compound 833]	400 nM	40 nM	
Cc1ccc(F)c2cc(C(=O)N[C@@H]3CCC[C@H](N4CCC5(CC4)CNC(=O)C5)C3)[nH]c12 [compound 928]		30 nM	900 nM
Cc1ccc(F)c2cc(C(=O)Nc3cccc(N4CCOC(C5CC5)C4)c3)[nH]c12 (stereo not shown) [compound 143]		60 nM	300 nM
Cc1cccc2cc(C(=O)Nc3ccc4nc[nH]c(=O)c4c3)[nH]c12 [compound 538]		1000 nM	> 25000 nM
Cc1c(NC(=O)c2cc3c(F)ccc(C)c3[nH]2)cccc1N1CCN(C)CC1 [compound 320]		200 nM	1400 nM
Cc1ccc(F)c2cc(C(=O)Nc3cccc(CC4CCCN(C)C4)c3)[nH]c12 (stereo not shown) [compound 352]		100 nM	> 2000 nM
Cc1nnc(C2CCCC(NC(=O)c3cc4c(F)ccc(C)c4[nH]3)C2)o1 (stereo not shown) [compound 975]	400 nM	100 nM	
Cc1cccc2cc(C(=O)NCc3ccccc3N3CCOCC3)[nH]c12 [compound 575]		> 18000 nM	> 25000 nM
Cc1ccc(F)c2cc(C(=O)NC(c3nc4ccccn4c3C)C3CC3)[nH]c12 (stereo not shown) [compound 400]	2400 nM	300 nM	
Cc1ccc(F)c2cc(C(=O)Nc3cc(F)cc(N4CCN(C(=O)CN(C)C)CC4)c3)[nH]c12 [compound 62]	100 nM	9 nM	
CCN(C(=O)CO)C1CCN(C2CCCC(NC(=O)c3cc4c(F)ccc(C)c4[nH]3)C2)C1 (stereo not shown) [compound 1120]	> 2000 nM	5900 nM	
Cc1cccc2cc(C(=O)N[C@H]3C[C@@H](NC(=O)CCN)C3)[nH]c12 [compound 596]		> 50000 nM	> 25000 nM
Cc1cccnc1C1(NC(=O)c2cc3cccc(C)c3[nH]2)CNC1 [compound 591]		> 50000 nM	> 25000 nM
Cc1ccc(F)c2cc(C(=O)NC3CCCC(N4CCN5C(=O)NCC5C4)C3)[nH]c12 (stereo not shown) [compound 1083]	50 nM	20 nM	
Cc1ccc(F)c2cc(C(=O)NC3CCCC(N4CCn5c(c[nH]c5=O)C4)C3)[nH]c12 (stereo not shown) [compound 1166]	> 2000 nM	1000 nM	
Cc1ccc(F)c2cc(C(=O)Nc3ccn(C4CCN(C)CC4)n3)[nH]c12 [compound 548]	> 25000 nM	5100 nM	
Cc1ccc(F)c2cc(C(=O)NC(c3nccc4ccccc34)C3CC3)[nH]c12 (stereo not shown) [Cpd. No. 507, N-(cyclopropyl(isoquinolin-1-yl)methyl)-4-fluoro-7-methyl-1H-indole-2-carboxamide]		1100 nM	15100 nM
Cc1ccc(F)c2cc(C(=O)N[C@@H]3CCC[C@H](N4CCn5c(cnc5C(F)(F)F)C4)C3)[nH]c12 [compound 993]		40 nM	200 nM
CC(=O)N1C(C)CN(C2CCCC(NC(=O)c3cc4c(F)ccc(C)c4[nH]3)C2)CC1C (stereo not shown) [compound 1162]	200 nM	70 nM	
CC(=O)N1C2CCC1CN(C1CCCC(NC(=O)c3cc4c(F)ccc(C)c4[nH]3)C1)C2 (stereo not shown) [compound 926]	100 nM	20 nM	
Cc1cccc2cc(C(=O)N[C@H]3CC[C@H](NC(=O)CCN4CCCCC4)CC3)[nH]c12 [compound 587]		37400 nM	> 25000 nM
Cc1ccc(F)c2cc(C(=O)Nc3cccc(N4CCN(C)CC4C)c3)[nH]c12 (stereo not shown) [compound 318]		200 nM	1400 nM
Cc1ccc(F)c2cc(C(=O)Nc3cc(F)cc([C@H]4CC[C@@H](N(C)C)CC4)c3)[nH]c12 [compound 69]	200 nM	3 nM	
Cc1ccc(F)c2cc(C(=O)NC3CCCC(N4CCC(N5CCOC5=O)C4)C3)[nH]c12 (stereo not shown) [compound 959]	> 2000 nM	2300 nM	

Further compounds by falling IC50 (SETD2(1434-1711)), results first:

IC50 (H3K36me3 in A549 cells)	IC50 (SETD2(1434-1711))	IC50 (H3K36me3 in A549 cells; Homo sapiens)	SMILES
	12900 nM	> 25000 nM	Cc1cccc2cc(C(=O)NCCc3ccccc3N3CCOC(CN(C)C)C3)[nH]c12 (stereo not shown) [compound 566]
20900 nM	12600 nM		COC(=O)CC(NC(=O)c1cc2cccc(C)c2[nH]1)c1ccc(Br)cc1 (stereo not shown) [compound 525]
> 25000 nM	8300 nM		NCCC(=O)NC1CCC(NC(=O)c2cc3cccc(Br)c3[nH]2)CC1 (stereo not shown) [compound 553]
> 2000 nM	7000 nM		CC(=O)N1CCC12CN(C1CCCC(NC(=O)c3cc4c(F)ccc(C)c4[nH]3)C1)C2 (stereo not shown) [compound 951]
> 2000 nM	6600 nM		CC(=O)N1CCN(C2COCC(NC(=O)c3cc4c(F)ccc(C)c4[nH]3)C2)CC1 (stereo not shown) [compound 985]
> 2000 nM	6100 nM		Cc1ccc(F)c2cc(C(=O)NC3COCC(c4cncnc4)C3)[nH]c12 (stereo not shown) [compound 368]
	2900 nM	> 2000 nM	COCC(=O)N(C)[C@H]1CCN([C@@H]2CCC[C@@H](NC(=O)c3cc4c(F)ccc(C)c4[nH]3)C2)C1 [compound 1063]
> 25000 nM	2600 nM		Cc1cccc2cc(C(=O)NC3CCN(C(=O)CCCN)CC3C)[nH]c12 (stereo not shown) [compound 543]
> 2000 nM	2600 nM		CC(=O)N1CCN(C2CCCC(NC(=O)c3cc4c(F)ccc(C)c4[nH]3)C2)CC1CO (stereo not shown) [compound 1022]
	600 nM	> 2000 nM	CC(=O)N1[C@H](C)CN([C@@H]2CCC[C@@H](NC(=O)c3cc4c(F)ccc(C)c4[nH]3)C2)C[C@H]1C [compound 1193]
400 nM	400 nM		Cc1ccc(F)c2cc(C(=O)N[C@@H]3CCC[C@H](N4CCCNC(=O)C4)C3)[nH]c12 [compound 823]
	400 nM	5900 nM	Cc1cc(C(=O)N[C@@H]2CC[C@H]2N)cnc1C(NC(=O)c1cc2cccc(C)c2[nH]1)C1CC1 (stereo partly shown) [compound 455]
	300 nM	1300 nM	Cc1ccc(F)c2cc(C(=O)N[C@@H]3CCC[C@@H](N4CCN5C(=O)CCC[C@@H]5C4)C3)[nH]c12 [compound 1079]
	200 nM	1400 nM	Cc1ccc(F)c2cc(C(=O)N[C@@H]3CCC[C@H](N4CCn5nc(C(F)(F)F)nc5C4)C3)[nH]c12 [compound 1031]
5000 nM	200 nM		Cc1cccc2cc(C(=O)Nc3cccc(N4CCC(NC(=O)CN)CC4)c3)[nH]c12 [compound 439]
	200 nM	1600 nM	CNc1cccc(-c2cccc(NC(=O)c3cc4c(F)ccc(C)c4[nH]3)c2)n1 [compound 326]
1700 nM	200 nM		Cc1ccc(F)c2cc(C(=O)Nc3cccc(CCO)c3)[nH]c12 [compound 341]
	100 nM	300 nM	Cc1ccc(F)c2cc(C(=O)N[C@@H]3CCC[C@H](N4CCCN(C)C(=O)C4)C3)[nH]c12 [compound 887]
500 nM	100 nM		Cc1ccc(F)c2cc(C(=O)N[C@@H]3CCC[C@H](N4CCN(CC(F)(F)F)CC4)C3)[nH]c12 [compound 826]
	100 nM	700 nM	Cc1ccc(F)c2cc(C(=O)N[C@@H]3CCC[C@H](N4CCCC5(CCNC5=O)C4)C3)[nH]c12 (stereo partly shown) [compound 882]
	50 nM	300 nM	Cc1ccc(F)c2cc(C(=O)Nc3cccc(N4CCC(O)CC4)c3)[nH]c12 [compound 126]
	50 nM	300 nM	Cc1ccc(F)c2cc(C(=O)Nc3cccc(N4CCN(C(=O)CC#N)CC4)c3)[nH]c12 [compound 170]
200 nM	40 nM		Cc1ccc(F)c2cc(C(=O)NC3CCCC(N4CCN(C5CCOC5)C(=O)C4)C3)[nH]c12 (stereo not shown) [compound 973]
400 nM	30 nM		Cc1ccc(F)c2cc(C(=O)Nc3cccc(N4CCN5C(=O)NCC5C4)c3)[nH]c12 (stereo not shown) [compound 181]
	20 nM	> 2000 nM	Cc1ccc(F)c2cc(C(=O)N[C@@H]3CCC[C@H](N4CCC5(CC4)CNC(=O)N5)C3)[nH]c12 [compound 940]
40 nM	20 nM		Cc1ccc(F)c2cc(C(=O)N[C@@H]3CCC[C@H](N4CCN(C(=O)N5CCOCC5)CC4)C3)[nH]c12 [compound 828]
60 nM	20 nM		Cc1ccc(F)c2cc(C(=O)Nc3cc(F)cc(N4CCOC(CCO)C4)c3)[nH]c12 (stereo not shown) [compound 24]
	9 nM	60 nM	Cc1ccc(F)c2cc(C(=O)Nc3cc(F)cc(N4CCN(C)C(=O)C4)c3)[nH]c12 [compound 20]
600 nM	9 nM		Cc1ccc(F)c2cc(C(=O)Nc3cc(Cl)cc(N4CCC(CCCN)CC4)c3)[nH]c12 [compound 246]
